According to US7070892B2, “Imaging members” (Xerox Corporation, priority 2004, dated 2006):

Experiment: solubility of the electron transport component (CFM derivative) in organic solvents
Type: physicochemical

Structure (SMILES) | solubility of the electron transport component (solvent is butylacetate) [grams/liter] | solubility of the electron transport component (solvent is tetrahydrofuran) [grams/liter]
CCCCC(CC)COC(=O)c1cccc2c1-c1ccccc1C2=C(C#N)C#N (stereo not shown) [R8 is 2-ethylhexyl, 9-dicyanomethylenefluorene-4-(2-ethylhexyl)carboxylate] | 25 | 205
CCCCOC(=O)c1cccc2c1-c1ccccc1C2=C(C#N)C#N [R8 is n-butyl, (4-n-butoxycarbonyl-9-fluorenylidene)malononitrile] | 8 | 105
